The structures appear in SMILES notation.

The subject of one data set is Liver microsomes. Kind of data set: Half life in rat liver microsomes at 1 uM. Background: Microsomes from liver hold many membrane-bound enzymes, among them those of drug oxidation.
The test system of the next data set is Plasma. Kind of data set: Plasma protein binding in rat at 10 uM after 6 hrs.
The next data set deals with T1, Adenosine receptor A1 (Homo sapiens, UniProt P30542).
T1 sequence (P30542 whole entry): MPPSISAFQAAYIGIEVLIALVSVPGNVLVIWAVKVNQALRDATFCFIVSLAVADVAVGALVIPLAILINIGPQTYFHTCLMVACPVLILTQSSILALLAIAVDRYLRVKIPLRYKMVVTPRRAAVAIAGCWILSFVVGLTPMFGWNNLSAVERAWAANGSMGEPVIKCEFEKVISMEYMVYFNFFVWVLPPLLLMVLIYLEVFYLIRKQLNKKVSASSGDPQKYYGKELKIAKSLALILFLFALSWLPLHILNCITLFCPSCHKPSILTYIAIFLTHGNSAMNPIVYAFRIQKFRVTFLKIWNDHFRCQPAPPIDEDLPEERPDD

Data set [1] in a line: Kinetic solubility of the compound.
Data set [2] deals with T2, Adenosine receptor A3 (Homo sapiens) (UniProt P0DMS8).
T2 sequence (whole entry): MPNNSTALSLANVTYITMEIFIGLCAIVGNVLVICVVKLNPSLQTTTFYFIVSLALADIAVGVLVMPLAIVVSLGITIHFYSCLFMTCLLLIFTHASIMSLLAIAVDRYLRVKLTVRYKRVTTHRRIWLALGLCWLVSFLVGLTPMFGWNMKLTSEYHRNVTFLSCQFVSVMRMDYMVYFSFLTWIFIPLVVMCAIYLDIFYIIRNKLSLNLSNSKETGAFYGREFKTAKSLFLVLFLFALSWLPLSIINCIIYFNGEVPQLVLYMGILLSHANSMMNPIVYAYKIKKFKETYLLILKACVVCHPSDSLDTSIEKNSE
Kind of data set: Antagonist activity at adenosine A3 receptor. It is filed as functional.

For a further data set, the target named is T3, Adenosine receptor A2b (Homo sapiens, UniProt P29275).
T3 sequence (P29275 whole entry): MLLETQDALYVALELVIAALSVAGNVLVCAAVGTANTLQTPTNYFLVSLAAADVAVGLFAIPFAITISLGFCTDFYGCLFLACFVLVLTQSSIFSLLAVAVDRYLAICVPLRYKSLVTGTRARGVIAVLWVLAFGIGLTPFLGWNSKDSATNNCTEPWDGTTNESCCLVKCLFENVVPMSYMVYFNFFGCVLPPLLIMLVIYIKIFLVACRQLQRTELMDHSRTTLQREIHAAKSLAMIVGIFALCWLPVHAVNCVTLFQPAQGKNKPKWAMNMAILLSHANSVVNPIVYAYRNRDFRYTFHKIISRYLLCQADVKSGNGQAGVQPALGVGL
In words: Inhibition of adenosine A2B receptor.

The nature of data set [3]: Plasma clearance in rat at 1 mg/kg, iv. It is filed as ADME, organism-based. The arrangement: dose 1 mg/kg, route intravenous.
A short description of data set [4]: Volume of distribution at steady state in rat at 1 mg/kg, iv. It is filed as ADME, organism-based. More on the design: dose 1 mg/kg, route intravenous. The following applies: in vivo, read-out: Vdss.
A short description of data set [5]: Terminal half life in rat at 1 mg/kg, iv. It is filed as ADME, organism-based. The following applies: in vivo, read-out: beta t1/2 (converted). The arrangement: dose 1 mg/kg, route intravenous.
Data set [6] is described as follows: AUC (infinity) in rat at 1 mg/kg, iv. More on the design: dose 1 mg/kg, route intravenous, time infinity. It is filed as ADME, organism-based. The conditions noted are these: plasma.
A further data set has as its system Nucleic Acid. Kind of data set: Ratio of drug level in brain to plasma in rat at 1 mg/kg, iv at 0.5 hrs. Type of data set: ADME, organism-based. The arrangement: dose 1 mg/kg, route intravenous.
Data set [7] can be described thus: Tmax in rat at 2 mg/kg, po. Type of data set: ADME, organism-based. The arrangement: dose 2 mg/kg, route oral. The conditions noted are these: in vivo.
A short description of data set [8]: Cmax in rat at 2 mg/kg, po. It is filed as ADME, organism-based. The arrangement: dose 2 mg/kg, route oral. The following applies: in vivo.
Data set [9] can be described thus: Terminal half life in rat at 2 mg/kg, po. It is filed as ADME, organism-based. More on the design: dose 2 mg/kg, route oral. The conditions noted are these: in vivo, read-out: beta t1/2 (converted).
Data set [10] in a line: Oral bioavailability in rat at 2 mg/kg. The following applies: in vivo. It is filed as ADME, organism-based.
Data set [11] concerns Rattus norvegicus. In words: Reversal of haloperidol-induced catalepsy in po dosed Sprague-Dawley rat administered 30 mins post haloperidol-challenge measured after 1 hr. Type of data set: functional.
Data set [12] relates to Rattus norvegicus. Kind of data set: Reversal of haloperidol-induced catalepsy in po dosed Sprague-Dawley rat administered 30 mins post haloperidol-challenge measured after 2 hrs. It is filed as functional.

`Nc1nnc(-c2cccc(Cl)c2)c(-c2ccccc2)n1` showed a t1/2 in the data set on Liver microsomes of 0.483 h. Also, in the data set with Plasma, the PPB worked out at 97.9%.

As to `Cc1cc(-c2nnc(N)nc2-c2ccccc2)cc(C)n1`, the values for the Ki at Adenosine receptor A1 and on Adenosine receptor A2b were 85.1 nM and 50.1 nM, respectively. Further, the t1/2 in the data set with Liver microsomes was found to be 1.67 h. Also, the Kinetic_solubility in data set [1] was 40 µM. This compound also gave a PPB in the data set with Plasma of 82.1%. In data set [2], the INH is > 10 µM.

`Cc1cc(-c2nnc(N)nc2-c2cc(F)cc(F)c2)cc(C)n1` showed a Ki at Adenosine receptor A1 of 170 nM. The t1/2 with Liver microsomes was found to be 1.67 h. Moreover, the Kinetic_solubility in data set [1] was determined as 45 µM.

`Cc1cc(C)cc(-c2nnc(N)nc2-c2ccccc2)c1`: at Adenosine receptor A1, the Ki was 195 nM. In the data set on Liver microsomes, this compound had a t1/2 of 0.15 h. The compound also showed a Kinetic_solubility in data set [1] of 20 µM. The same compound returned a PPB in the data set with Plasma of 98%.

In turn, `Nc1nnc(-c2cc(Cl)cc(Cl)c2)c(-c2ccccc2)n1` gave a t1/2 in the data set with Liver microsomes of 1.8 h. Besides, the INH in data set [2] is > 10 µM.

Take `Cc1cc(-c2nnc(N)nc2-c2cccc(F)c2)cc(C)n1`: at Adenosine receptor A1, the Ki was 110 nM. Moreover, the t1/2 in the data set on Liver microsomes came to 1.3 h. In addition, in the data set on Plasma, the PPB was 87%.

In the data set on Liver microsomes, `Cc1cc(-c2nnc(N)nc2-c2ccccc2)cc(C(F)(F)F)n1` yielded a t1/2 of 1.43 h. This compound also had a PPB in the data set with Plasma of 92%. The clearance in data set [3] was 42 mL/min/kg. Further, the Vd in [4] was determined as 4.6 L/kg. The half-life was 1.2 h in [5] and 1.1 h in data set [9]. The total exposure AUC(0-inf) in data set [6] was determined as 397 ng·h/mL. In the data set with Nucleic Acid, the BPR was 3.2. Also, in data set [7], the Tmax was 0.4 h. In data set [8], this compound came in with a Cmax of 244 ng/mL. The compound further gave a bioavailability in [10] of 100%. Moreover, the Activity result in the data set on Rattus norvegicus [11] and in the data set on Rattus norvegicus [12] was “Dose-dependent effect” each time. In addition, the ED50 with Rattus norvegicus [11] and in the data set with Rattus norvegicus [12] was 0.2 mg/kg each time.

Consider `Nc1nnc(-c2ccc(O)c(Cl)c2)c(-c2ccccc2)n1`, for which the t1/2 with Liver microsomes came out at 1.15 h. In [1], this compound showed a Kinetic_solubility of 45 µM. This compound returned a PPB with Plasma of 98%.

As to `Cc1cc(-c2nnc(N)nc2-c2ccccc2)cc(C)c1O`, the Ki on Adenosine receptor A1 was 16.6 nM. In the data set on Liver microsomes, this compound showed a t1/2 of 1.25 h. In the data set with Plasma, this compound registered a PPB of 93.3%.

On Adenosine receptor A1, `Nc1nnc(-c2ccccc2)c(-c2ccccc2)n1` had a Ki of 275 nM. In the data set with Liver microsomes, this compound displayed a t1/2 of 0.383 h. Further, the Kinetic_solubility in data set [1] is > 100 µM.

At Adenosine receptor A1, `Cc1cc(-c2nnc(N)nc2-c2ccc(F)cc2)cc(C(F)(F)F)n1` showed a Ki of 117 nM. This compound yielded a t1/2 in the data set with Liver microsomes of 1.62 h. The compound also displayed a PPB in the data set on Plasma of 93%.

Broadly, the Ki is the equilibrium dissociation constant of an inhibitor or competing ligand from its target. Read a high Ki as lower affinity. The term clearance denotes the rate of elimination divided by the concentration. In general, AUC(0-inf) refers to total exposure, with the tail of the curve extrapolated. Lower therefore signals less exposure. For orientation: Tmax means the time at which the peak concentration occurs. The term Cmax denotes the highest concentration seen after dosing. For orientation: bioavailability means the share of a dose that reaches the circulation, judged against a reference dose that is usually intravenous. A higher bioavailability goes with good availability. As usually defined, the ED50 is the midpoint of the dose-response relation.
